From EP3530280B1, “VETERINARY COMPOSITION FOR MANUFACTURING A SEMINAL ADDITIVE USEFUL FOR ARTIFICIAL INSEMINATION IN ANIMALS” (Universidad De León, priority 2016, dated 2020)

System: swine
Assay: Field studies of semen additive in swine artificial insemination (fecundity, birth fertility, prolificacy)
Assay type: in vivo
Conditions: Experimental Groups, amount per dose as given in the Composition column
Method: In order to examine the effect of the prepared pharmaceutical composition in Example 1 above, for use thereof in swine artificial insemination, field studies were carried out about the effects on fecundity, birth fertility and prolificacy (mean of the total piglets being born (either dead or alive) per delivery). Tables 1 and 2 show the results of the studies being carried out, observing how there are differences being statistically significant in all the experimental groups with respect to control groups.
The statistical characters of fecundity (%fecundity), prolificacy (N.T.), number of alive births (N.V.) and mortality (% of N.M. against N.T.), were tested on factorial ANOVA, LSD Fisher and SAS package (Statistical Analysis System). Table 1. Effects on fecundity and birth fertility

[1] = additive applied to seminal doses for swine artificial insemination

Question: What does the source list for Oxytocin?
Answer: prolificacy (mean of the total piglets being born (either dead or alive) per delivery) (Mean ± e.s. (n)): 14.30 ± 0.29 (154); Birth Fertility (%) [1]: 88.89%; Fecundity (%) [1]: 90.26%
